Test results taken from paper PMC4890880 (ACS infectious diseases, 2016).
pIC50: −log10 of the molar value. Counter-ions that a name gives are not always drawn. Like-named read-outs stand apart in the source and are kept apart here.

What was measured:
[1] = tested on: P. falciparum 3D7 parasites; test: Asexual erythrocytic-stage SYBR Green I proliferation assay, 1536-well; type: cell-based, Plasmodium falciparum
[2] = tested on: Plasmodium berghei (Pb-Luc) exoerythrocytic-stage parasites; test: microbe, parasite or virus in culture; settings: for inhibition at 10 µM: read-out: PbLuc max inhibition (%) @ 10 uM
[3] = tested on: Pb-Luc exoerythrocytic-stage parasites in Huh7.5.1 cells; test: Pb-Luc time of action assay (modified 384-well luciferase assay); settings: Plasmodium berghei
[4] = tested on: HepG2-A16-CD81EGFP cells; test: cells; settings: Homo sapiens; for pIC50: HepG2, read-out: Tox IC50; for inhibition at 10 µM: HepG2, read-out: Tox max inhibition (%) @ 10 uM
[5] = tested on: Plasmodium cynomolgi exoerythrocytic-stage small (hypnozoites) and large (liver stage schizonts) parasites; test: P. cynomolgi liver assay in primary hepatocytes; settings: Plasmodium cynomolgi, Hepatocyte
[6] = molecular target: QuantiLum Recombinant Luciferase (Photinus pyralis, UniProt P08659); test: Bioluminescence quantification of compound luciferase inhibition; settings: for Emax: read-out: LucInhib max inhibition
Chain of QuantiLum Recombinant Luciferase (P08659 whole entry): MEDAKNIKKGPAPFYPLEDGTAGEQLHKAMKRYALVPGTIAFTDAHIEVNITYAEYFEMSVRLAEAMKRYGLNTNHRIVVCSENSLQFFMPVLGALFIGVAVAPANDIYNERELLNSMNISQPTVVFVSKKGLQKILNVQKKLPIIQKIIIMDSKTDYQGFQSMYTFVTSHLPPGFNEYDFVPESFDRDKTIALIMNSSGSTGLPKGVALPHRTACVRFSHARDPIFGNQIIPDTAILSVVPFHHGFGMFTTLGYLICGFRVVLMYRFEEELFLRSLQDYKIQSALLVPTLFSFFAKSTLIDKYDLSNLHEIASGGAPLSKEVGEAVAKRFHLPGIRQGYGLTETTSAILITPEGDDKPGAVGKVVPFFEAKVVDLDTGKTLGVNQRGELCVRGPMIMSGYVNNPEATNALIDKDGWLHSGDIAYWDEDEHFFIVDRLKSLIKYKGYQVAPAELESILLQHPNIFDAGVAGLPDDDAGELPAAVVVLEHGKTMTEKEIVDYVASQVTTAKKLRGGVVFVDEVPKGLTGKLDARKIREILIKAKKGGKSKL

[7] = Plasmodium falciparum, 3D7, read-out: P. falciparum (blood) IC50, Table S1, validation set of 50 antimalarials
[8] = read-out: P. berghei (liver) IC50, Table S1, validation set of 50 antimalarials, Pb-Luc
[9] = Huh-7.5.1, read-out: Pb-Luc IC50, Treatment: 1
[10] = Huh-7.5.1, read-out: Pb-Luc IC50, Treatment: 2
[11] = Huh-7.5.1, read-out: Pb-Luc IC50, Treatment: 3
[12] = Huh-7.5.1, read-out: Pb-Luc IC50, Treatment: 4
[13] = Huh-7.5.1, read-out: Pb-Luc IC50, Treatment: 5
[14] = Huh-7.5.1, read-out: Pb-Luc IC50, Treatment: 6
[15] = HepG2, read-out: HepG2 Tox% @ 50 uM rep1
[16] = HepG2, read-out: HepG2 Tox% @ 50 uM rep2
[17] = read-out: Inhibition% @ 50 uM rep1
[18] = read-out: Inhibition% @ 50 uM rep2
[19] = read-out: PbLuc IC50, dose response, 1/3 dilutions, max conc. 10 or 50 uM, unit inferred
[20] = read-out: % inhibition normalized to untreated control, Large
[21] = read-out: % inhibition normalized to untreated control, Small
[22] = Plasmodium falciparum, 3D7, read-out: P. falciparum (blood) IC50
[23] = read-out: P. berghei (liver) IC50

O=C1C(O)=C([C@H]2CC[C@H](c3ccc(Cl)cc3)CC2)C(=O)c2ccccc21 [Atovaquone, reference compound]
pIC50 [1, 7]: > 9.40 | pIC50 [2, 8]: 9.60 | pIC50 [3, 9]: 7.47 | pIC50 [3, 10]: 8.55 | pIC50 [3, 11]: 8.10 | pIC50 [3, 12]: 8.80 | pIC50 [3, 13]: 8.96 | pIC50 [3, 14]: 9.05

O=C(NCCN1CCCC1)c1cc(-c2ccc(CN3CCOCC3)cc2)nc2ccc(F)cc12 [DDD107498, reference compound]
pIC50 [3, 9]: 8.66 | pIC50 [3, 10]: 8.80 | pIC50 [3, 11]: 9.10 | pIC50 [3, 12]: 8.96 | pIC50 [3, 13]: 9.05 | pIC50 [3, 14]: 9.15

O=CN(O)CCCP(=O)(O)O [Fosmidomycin, reference compound]
pIC50 [1, 7]: < 5.00 | pIC50 [2, 8]: < 4.90

CCCCN(CCCC)CCC(O)c1cc2c(Cl)cc(Cl)cc2c2cc(C(F)(F)F)ccc12 (centres unmarked) [Halofantrine, reference compound]
pIC50 [1, 7]: 8.82 | pIC50 [2, 8]: 5.55

CCN(CCO)CCCC(C)Nc1ccnc2cc(Cl)ccc12 (centres unmarked) [Hydroxychloroquine, reference compound]
pIC50 [1, 7]: 7.86 | pIC50 [2, 8]: < 4.90

CCCCN(CCCC)CC(O)c1cc(Cl)cc2c1-c1ccc(Cl)cc1/C2=C/c1ccc(Cl)cc1 (centres unmarked) [Lumefantrine, reference compound]
pIC50 [1, 7]: 8.14 | pIC50 [2, 8]: < 4.90

Cc1ccc(N2C3c4ccccc4N(S(=O)(=O)c4ccc(C)cc4)C2c2ccccc2N3S(=O)(=O)c2ccc(C)cc2)cc1 [MMV007160]
cytotoxicity at 50 µM [4, 15]: -4.53% | cytotoxicity at 50 µM [4, 16]: -10% | pIC50 [4]: < 5.00 | inhibition at 10 µM [4]: 10% | inhibition at 50 µM [2, 17]: 103% | inhibition at 50 µM [2, 18]: 105% | pIC50 [2, 19]: 7.44 | inhibition at 10 µM [2]: 110% | inhibition at 0.1 µM [5, 20]: 17% | inhibition at 1 µM [5, 20]: 14% | inhibition at 10 µM [5, 20]: 0% | inhibition at 0.1 µM [5, 21]: 17% | inhibition at 1 µM [5, 21]: -25% | inhibition at 10 µM [5, 21]: -11% | pIC50 [6]: < 4.70 | Emax [6]: 14% | pIC50 [3, 9]: 6.10 | pIC50 [3, 10]: 6.54 | pIC50 [3, 11]: 5.54 | pIC50 [3, 12]: 6.75 | pIC50 [3, 13]: 6.70 | pIC50 [3, 14]: 6.75

COc1ccccc1CNC(=O)CCn1c(=O)[nH]c2ccccc2c1=O [MMV665916]
cytotoxicity at 50 µM [4, 15]: -21% | cytotoxicity at 50 µM [4, 16]: -23% | pIC50 [4]: < 5.00 | inhibition at 10 µM [4]: -2.14% | inhibition at 50 µM [2, 17]: 99% | inhibition at 50 µM [2, 18]: 99% | pIC50 [2, 19]: 7.35 | inhibition at 10 µM [2]: 100% | inhibition at 0.1 µM [5, 20]: 6% | inhibition at 1 µM [5, 20]: 2% | inhibition at 10 µM [5, 20]: -13% | inhibition at 0.1 µM [5, 21]: 20% | inhibition at 1 µM [5, 21]: -13% | inhibition at 10 µM [5, 21]: -15% | pIC50 [6]: < 4.70 | Emax [6]: 15% | pIC50 [3, 9]: 5.24 | pIC50 [3, 10]: 5.24 | pIC50 [3, 11]: 5.09 | pIC50 [3, 12]: 5.37 | pIC50 [3, 13]: 6.10 | pIC50 [3, 14]: 6.43

OC(c1cc(C(F)(F)F)nc2c(C(F)(F)F)cccc12)C1CCCCN1 (centres unmarked) [Mefloquine (+ RS), Mefloquine, reference compound]
pIC50 ([1]; read-out: P. falciparum (blood) IC50, Table S1, validation set of 50 antimalarials): 7.78 | pIC50 [2, 8]: 5.63

CN(C)c1ccc2nc3ccc(=[N+](C)C)cc-3sc2c1 [Methylene Blue, reference compound]
pIC50 [1, 7]: 5.10 | pIC50 [2, 8]: 7.02

CC(C)(N)CNC(=O)C[C@H]1CC[C@]2(CC1)OO[C@]1(O2)C2CC3CC(C2)CC1C3 [OZ277, reference compound]
pIC50 [1, 7]: 8.64 | pIC50 [2, 8]: 5.79

c1cc([C@H]2CC[C@]3(CC2)OO[C@]2(O3)C3CC4CC(C3)CC2C4)ccc1OCCN1CCOCC1 [OZ439, reference compound]
pIC50 [1, 7]: 8.55 | pIC50 [2, 8]: 5.28

CCN(CC)CCCC(C)Nc1cc(OC)cc2cccnc12 (centres unmarked) [Pamaquine, reference compound]
pIC50 [1, 7]: < 5.00 | pIC50 [2, 8]: < 4.90

N=C(N)c1ccc(OCCCCCOc2ccc(C(=N)N)cc2)cc1 [Pentamidine, reference compound]
pIC50 [1, 7]: 9.30 | pIC50 [2, 8]: 6.54

Clc1ccc2c(N3CCN(CCCN4CCN(c5ccnc6cc(Cl)ccc56)CC4)CC3)ccnc2c1 [Piperaquine, reference compound]
pIC50 [1, 7]: 7.14 | pIC50 [2, 8]: < 4.90

COc1cc(NC(C)CCCN)c2ncccc2c1 (centres unmarked) [Primaquine, reference compound]
pIC50 [1, 22]: 6.16 | pIC50 [2, 23]: 6.15 | inhibition at 0.1 µM [5, 20]: 1% | inhibition at 1 µM [5, 20]: 3% | inhibition at 10 µM [5, 20]: 13% | inhibition at 0.1 µM [5, 21]: 4% | inhibition at 1 µM [5, 21]: 19% | inhibition at 10 µM [5, 21]: 24%

[H]/N=C(\N/C(=N/[H])Nc1ccc(Cl)cc1)NC(C)C [Proguanil HCL, reference compound]
pIC50 [1, 7]: 5.20 | pIC50 [2, 8]: 5.34

CCc1nc(N)nc(N)c1-c1ccc(Cl)cc1 [Pyrimethamine, reference compound]
pIC50 [1, 7]: 7.70 | pIC50 [2, 8]: 8.29 | pIC50 [3, 9]: 6.91 | pIC50 [3, 10]: 7.68 | pIC50 [3, 11]: 6.60 | pIC50 [3, 12]: 7.71 | pIC50 [3, 13]: 7.73 | pIC50 [3, 14]: 7.72

COc1ccc2nc3cc(Cl)ccc3c(Nc3cc(CN4CCCC4)c(O)c(CN4CCCC4)c3)c2n1 [Pyronaridine, reference compound]
pIC50 [1, 7]: 8.02 | pIC50 [2, 8]: 5.17

C=C[C@H]1C[N@@]2CC[C@H]1C[C@@H]2[C@@H](O)c1ccnc2ccc(OC)cc12 [Quinidine, reference compound]
pIC50 [1, 7]: 8.54 | pIC50 [2, 8]: < 4.90

C=C[C@H]1C[N@@]2CC[C@H]1C[C@H]2[C@H](O)c1ccnc2ccc(OC)cc12 [Quinine sulfate dihydrate, reference compound]
pIC50 [1, 7]: 7.91 | pIC50 [2, 8]: < 4.90

Cc1cc2nc3c(=O)[nH]c(=O)nc-3n(C[C@H](O)[C@H](O)[C@H](O)CO)c2cc1C [Riboflavin, reference compound]
pIC50 [1, 7]: < 4.20 | pIC50 [2, 8]: < 4.90

Nc1ccc(S(=O)(=O)Nc2ncccn2)cc1 [Sulfadiazine, reference compound]
pIC50 [1, 7]: < 4.20 | pIC50 [2, 23]: 7.80

COc1ncnc(NS(=O)(=O)c2ccc(N)cc2)c1OC [Sulfadoxine, reference compound]
pIC50 [1, 7]: < 4.20 | pIC50 [2, 8]: 7.13

COc1cc(C)c2c(Oc3cccc(C(F)(F)F)c3)c(OC)cc(NC(C)CCCN)c2n1 (centres unmarked) [Tafenoquine, reference compound]
pIC50 [1, 7]: 5.55 | pIC50 [2, 8]: 5.23

CN(C)[C@@H]1C(O)=C(C(N)=O)C(=O)[C@@]2(O)C(O)=C3C(=O)c4c(O)cccc4[C@@](C)(O)[C@H]3C[C@@H]12 [Tetracycline, reference compound]
pIC50 [1, 7]: < 5.00 | pIC50 [2, 23]: < 4.90

C=C(NC(=O)C(=C)NC(=O)c1csc(C2=N[C@@H]3c4csc(n4)[C@H]4NC(=O)c5csc(n5)[C@H]([C@](C)(O)[C@@H](C)O)NC(=O)[C@H]5CSC(=N5)/C(=C/C)NC(=O)[C@H]([C@@H](C)O)NC(=O)c5csc(n5)[C@]3(CC2)NC(=O)[C@H](C)NC(=O)C(=C)NC(=O)[C@H](C)NC(=O)[C@H]([C@@H](C)CC)N[C@@H]2C=Cc3c([C@H](C)O)cc(nc3[C@H]2O)C(=O)O[C@@H]4C)n1)C(N)=O [Thiostrepton, reference compound]
pIC50 [1, 22]: 5.72 | pIC50 [2, 23]: 5.50
